Data on 24 substances can be found in patent publication US11214803B2, “Modulators of YAP1 expression” (Ionis Pharmaceuticals, Inc., priority 2019, dated 2022).

Strand notation (5' to 3'): a small letter for the sugar, then the base; units joined by * are phosphorothioate-linked, units joined directly phosphodiester-linked; [ ] holds rarer units or linkages, { } end groups; capitals alone tell only the bases. k = constrained ethyl (cEt); [5mC] = 5-methylcytosine; d = 2'-deoxy (DNA)

The data set concerns Yap1 mRNA. The data set can be described thus: Dose-dependent inhibition of human Yap1 in A-431 cells (Example 8, 10,000 cells per well, RTS4814). Type of data set: cell-based. As to conditions: free uptake, approximately 48 hours, RTS4814; for Yap1 mRNA, % UTC: A-431 cells, 10,000 cells per well; for IC50: A-431 cells, linear regression on log/linear plot. The procedure:
Modified oligonucleotides described in the studies above were tested at various doses in A-431 cells. Cultured A-431 cells at a density of 10,000 cells per well were treated using free uptake with modified oligonucleotides diluted to concentrations described in the tables below. After approximately 48 hours, Yap1 mRNA levels were measured as previously described using the Human Yap1 primer-probe set RTS4814. Yap1 mRNA levels were normalized to total RNA content, as measured by RIBOGREEN®. Results are presented in the tables below as percent control of the amount of Yap1 mRNA relative to untreated control cells (% UTC). IC50s were calculated using a linear regression on a log/linear plot of the data in excel.

One may read the IC50 as the midpoint of a concentration-inhibition curve. Read a high IC50 as weaker potency. With “1074762 (kG*k[5mC]*kT*dA*d[5mC]*d[5mC]*d[5mC]*dA*dA*dT*dA*d[5mC]*dA*kA*k[5mC]*k[5mC]; antisense) [compound 1074762]”, the IC50 amounted to 0.1 µM. Besides, the “Yap1 mRNA, % UTC” value (31.3 nM) is reported as 74 % UTC. Moreover, where the note is “125.0 nM”, the “Yap1 mRNA, % UTC” value is reported as 32 % UTC. Also, the “Yap1 mRNA, % UTC” value (500.0 nM) came out at 14 % UTC. The “Yap1 mRNA, % UTC” value (2000.00 nM) is listed as 8 % UTC.
The like results for “1075816 (kT*kA*kG*dT*dA*dT*dA*dA*dA*dG*d[5mC]*dA*dG*kG*kG*k[5mC]; antisense) [compound 1075816]” were, in that order, 0.1 µM, 66 % UTC, 29 % UTC, 12 % UTC and 8 % UTC.
The like results for “1075078 (antisense k[5mC]*kA*kA*d[5mC]*dT*dA*dT*dA*d[5mC]*dG*dG*dT*d[5mC]*k[5mC]*kA*kT) [compound 1075078]” were, in that order, 0.1 µM, 65 % UTC, 32 % UTC, 12 % UTC and 4 % UTC.
The like results for “1075686 (kG*kT*kA*dA*dT*dT*dA*d[5mC]*dA*dG*dT*dG*dT*k[5mC]*kT*k[5mC]; antisense) [compound 1075686]” were, in that order, 0.1 µM, 72 % UTC, 44 % UTC, 18 % UTC and 14 % UTC.
In the case of “1076489 (k[5mC]*kA*kA*dA*dA*dT*dA*dG*dG*dT*dG*dA*dG*kT*k[5mC]*kA; antisense) [compound 1076489]”, the IC50 is less than 0.02 µM. For the setting “31.3 nM”, the “Yap1 mRNA, % UTC” value is on record as 43 % UTC. Moreover, for the setting “125.0 nM”, the “Yap1 mRNA, % UTC” value stood at 13 % UTC. Moreover, the “Yap1 mRNA, % UTC” value (500.0 nM) was found to be 4 % UTC. Besides, under “2000.00 nM”, the “Yap1 mRNA, % UTC” value came to 3 % UTC.
The like results for “1075781 (k[5mC]*kA*kT*dA*dT*dA*dT*dT*dG*dT*dG*dA*d[5mC]*kT*kT*k[5mC]; antisense) [compound 1075781]” were, in that order, less than 0.02 µM, 52 % UTC, 15 % UTC, 4 % UTC and 3 % UTC.
In turn, “1075749 (kA*kA*kT*dT*dA*dT*dG*dA*dA*dT*dG*dA*dT*kG*kG*kG; antisense) [compound 1075749]” yielded an IC50 of less than 0.02 µM. The “Yap1 mRNA, % UTC” value (31.3 nM) is recorded as 46 % UTC. Also, the “Yap1 mRNA, % UTC” value (125.0 nM) turned out to be 22 % UTC. Besides, the “Yap1 mRNA, % UTC” value (500.0 nM) was determined as 7 % UTC. Moreover, the “Yap1 mRNA, % UTC” value (2000.00 nM) is reported as 4 % UTC.
Turning to “1074753 (kT*kA*k[5mC]*dA*dT*dT*dA*dG*dG*dA*dA*d[5mC]*dA*kA*kG*kG; antisense) [compound 1074753]”, the IC50 was less than 0.02 µM. For the same substance, the “Yap1 mRNA, % UTC” value (31.3 nM) was determined as 42 % UTC. In addition, for the setting “125.0 nM”, the “Yap1 mRNA, % UTC” value was 10 % UTC. Further, for the setting “500.0 nM”, the “Yap1 mRNA, % UTC” value stood at 6 % UTC. Where the note is “2000.00 nM”, the “Yap1 mRNA, % UTC” value is 4 % UTC.
“1076293 (kG*k[5mC]*kT*dT*dA*dT*dT*dA*dT*dT*dG*dA*dG*kT*kT*kA; antisense) [compound 1076293]” displayed an IC50 of less than 0.02 µM. Also, for the setting “31.3 nM”, the “Yap1 mRNA, % UTC” value is listed as 49 % UTC. Moreover, where the note is “125.0 nM”, the “Yap1 mRNA, % UTC” value is reported as 18 % UTC. The “Yap1 mRNA, % UTC” value (500.0 nM) is 6 % UTC. In addition, the “Yap1 mRNA, % UTC” value (2000.00 nM) is listed as 5 % UTC.
The like results for “1076323 (k[5mC]*kA*kA*dT*dT*dT*dA*d[5mC]*dA*dA*dG*dT*dG*kA*kG*k[5mC]; antisense) [compound 1076323]” were, in that order, less than 0.02 µM, 41 % UTC, 35 % UTC, 13 % UTC and 5 % UTC.
For “1074564 (DNA k[5mC]*kT*kG*dA*dA*dT*dT*d[5mC]*d[5mC]*dA*dA*dT*d[5mC]*kG*kA*kG) [compound 1074564]”, in that order: less than 0.02 µM, 40 % UTC, 14 % UTC, 7 % UTC and 4 % UTC.
The like results for “1075784 (kA*kT*kT*dT*dT*dA*dT*dA*dG*dG*dG*d[5mC]*d[5mC]*kA*kT*kT; antisense) [compound 1075784]” were, in that order, less than 0.02 µM, 54 % UTC, 18 % UTC, 5 % UTC and 3 % UTC.
With “1074537 (k[5mC]*kA*kG*dT*dA*dA*dT*dA*dG*d[5mC]*dT*d[5mC]*dT*kT*kT*k[5mC]; antisense) [compound 1074537]”, the IC50 was less than 0.02 µM. The “Yap1 mRNA, % UTC” value (31.3 nM) is listed as 47 % UTC. The “Yap1 mRNA, % UTC” value (125.0 nM) was 21 % UTC. Further, where the note is “500.0 nM”, the “Yap1 mRNA, % UTC” value is given as 6 % UTC. Also, the “Yap1 mRNA, % UTC” value (2000.00 nM) is given as 4 % UTC.
The like results for “1074792 (kA*kT*k[5mC]*dA*dA*dT*dG*dT*dG*d[5mC]*dT*d[5mC]*d[5mC]*kA*kT*k[5mC]; antisense) [compound 1074792]” were, in that order, less than 0.02 µM, 48 % UTC, 17 % UTC, 7 % UTC and 5 % UTC.
For “1076516 (k[5mC]*kA*kT*dA*dA*dA*d[5mC]*dA*dT*dG*dA*dG*dT*kG*kG*kT; antisense) [compound 1076516]”, in that order: 0.1 µM, 64 % UTC, 39 % UTC, 18 % UTC and 13 % UTC.
For “1074535 (kG*kT*kA*dA*dT*dA*dG*d[5mC]*dT*d[5mC]*dT*dT*dT*k[5mC]*kT*kA; antisense) [compound 1074535]”, in that order: less than 0.02 µM, 57 % UTC, 21 % UTC, 7 % UTC and 5 % UTC.
Substance “1074758 (k[5mC]*kA*kG*dT*dT*dA*dA*dG*d[5mC]*dA*d[5mC]*dT*dT*kT*kT*kA; antisense) [compound 1074758]” showed an IC50 of 0.1 µM. Moreover, the “Yap1 mRNA, % UTC” value (31.3 nM) was 74 % UTC. Further, the “Yap1 mRNA, % UTC” value (125.0 nM) turned out to be 23 % UTC. In addition, the “Yap1 mRNA, % UTC” value (500.0 nM) stood at 8 % UTC. Further, the “Yap1 mRNA, % UTC” value (2000.00 nM) is 5 % UTC.
The substance “1075243 (k[5mC]*kT*kT*dA*dG*dT*dA*dA*dG*dA*dA*dT*dT*kG*kT*k[5mC]; antisense) [compound 1075243]” yielded an IC50 of less than 0.02 µM. In addition, for the setting “31.3 nM”, the “Yap1 mRNA, % UTC” value is listed as 50 % UTC. Besides, the “Yap1 mRNA, % UTC” value (125.0 nM) was 18 % UTC. Under “500.0 nM”, the “Yap1 mRNA, % UTC” value was 7 % UTC. For the same substance, the “Yap1 mRNA, % UTC” value (2000.00 nM) is 5 % UTC.
“1076449 (k[5mC]*k[5mC]*kT*dT*dA*dT*dA*dA*dT*dG*d[5mC]*dA*dA*kT*k[5mC]*k[5mC]; antisense) [compound 1076449]”: the IC50 is less than 0.02 µM. Further, for the setting “31.3 nM”, the “Yap1 mRNA, % UTC” value is 44 % UTC. The “Yap1 mRNA, % UTC” value (125.0 nM) is 8 % UTC. Where the note is “500.0 nM”, the “Yap1 mRNA, % UTC” value stood at 3 % UTC. Besides, for the setting “2000.00 nM”, the “Yap1 mRNA, % UTC” value was found to be 2 % UTC.
On to “1075081 (antisense kG*kA*kT*dT*dA*d[5mC]*dA*dA*dA*dG*dA*d[5mC]*dA*kG*k[5mC]*k[5mC]) [compound 1075081]”, for which the IC50 was determined as 0.1 µM. Moreover, under “31.3 nM”, the “Yap1 mRNA, % UTC” value was determined as 76 % UTC. Besides, for the setting “125.0 nM”, the “Yap1 mRNA, % UTC” value is recorded as 50 % UTC. The “Yap1 mRNA, % UTC” value (500.0 nM) is on record as 22 % UTC. For the same substance, under “2000.00 nM”, the “Yap1 mRNA, % UTC” value was 9 % UTC.
The like results for “1075112 (kA*kT*kA*dT*dA*dG*dG*dA*dA*dT*dA*dT*dG*kG*kG*kT; antisense) [compound 1075112]” were, in that order, 0.1 µM, 87 % UTC, 36 % UTC, 13 % UTC and 7 % UTC.
The like results for “1074313 (antisense kT*kG*kA*dT*dA*dT*dT*d[5mC]*d[5mC]*dG*d[5mC]*dA*dT*kT*kG*k[5mC]) [compound 1074313]” were, in that order, less than 0.02 µM, 56 % UTC, 21 % UTC, 9 % UTC and 5 % UTC.
Consider “1076288 (k[5mC]*kT*kT*dA*dT*dT*dT*dA*dG*d[5mC]*dA*dT*dA*kG*kT*kG; antisense) [compound 1076288]”, for which the IC50 was less than 0.02 µM. Also, the “Yap1 mRNA, % UTC” value (31.3 nM) is recorded as 31 % UTC. The “Yap1 mRNA, % UTC” value (125.0 nM) came to 7 % UTC. Moreover, the “Yap1 mRNA, % UTC” value (500.0 nM) worked out at 3 % UTC. The “Yap1 mRNA, % UTC” value (2000.00 nM) was 4 % UTC.
For “1074563 (DNA kT*kG*kA*dA*dT*dT*d[5mC]*d[5mC]*dA*dA*dT*d[5mC]*dG*kA*kG*kA; antisense) [compound 1074563]”, in that order: 0.1 µM, 80 % UTC, 31 % UTC, 7 % UTC and 5 % UTC.
